For this series, the system named is rodent carcinogenicity bioassays, tumor incidence. The series is described as follows: CCRIS carcinogenicity studies. The note with it: Dose: 0, Dose: 0. The source says:
The CCRIS database contains chemical records with carcinogenicity, mutagenicity, tumor promotion, and tumor inhibition test results. It was developed by the National Cancer Institute (NCI). Data are derived from studies cited in primary journals, current awareness tools, NCI reports, and other sources. Test results have been reviewed by experts in carcinogenesis and mutagenesis.
CCRIS provides historical information from the years 1985 - 2011. It is no longer updated.
This is an archive assay for CCRIS carcinogenicity studies.

The record followed here is PubChem BioAssay AID1259411 (Chemical Carcinogenesis Research Information System (CCRIS), 2018).

Structures are written as SMILES. The source made the active and inactive calls. No rule for the calls is given here.

For `CC1=CC(=O)CC(C)(C)C1`, the carcinogen call is, setting by setting: (Species: MOUSE, Strain/Sex: B6C3F1/FEMALE, Route: GAVAGE, 250, 500 MG/KG IN CORN OIL 5 D/WK FOR 103 WK (STUDY DURATION: 105 WK), 250, 500 MG/KG IN CORN OIL 5 D/WK FOR 103 WK (STUDY DURATION: 105 WK)) “inactive; negative”; (Species: MOUSE, Strain/Sex: B6C3F1/MALE, Route: GAVAGE, 250, 500 MG/KG IN CORN OIL 5 D/WK FOR 103 WK (STUDY DURATION: 105 WK), 250, 500 MG/KG IN CORN OIL 5 D/WK FOR 103 WK (STUDY DURATION: 105 WK), Tumor Site: Type of Lesion: LIVER: HEPATOCELLULAR ADENOMA OR CARCINOMA, INTEGUMENTARY SYSTEM: MESENCHYMAL TUMOR, HEMATOPOIETIC SYSTEM: MALIGNANT LYM, Tumor Site: Type of Lesion: LIVER: HEPATOCELLULAR ADENOMA OR CARCINOMA, INTEGUMENTARY SYSTEM: MESENCHYMAL TUMOR, HEMATOPOIETIC SYSTEM: MALIGNANT LYM) “equivocal”; (Species: RAT, Strain/Sex: F344/FEMALE, Route: GAVAGE, 250, 500 MG/KG IN CORN OIL 5 D/WK FOR 103 WK (STUDY DURATION: 105 WK), 250, 500 MG/KG IN CORN OIL 5 D/WK FOR 103 WK (STUDY DURATION: 105 WK)) “inactive; negative”; (Species: RAT, Strain/Sex: F344/MALE, Route: GAVAGE, 250, 500 MG/KG IN CORN OIL 5 D/WK FOR 103 WK (STUDY DURATION: 105 WK), 250, 500 MG/KG IN CORN OIL 5 D/WK FOR 103 WK (STUDY DURATION: 105 WK), Tumor Site: Type of Lesion: PREPUTIAL GLAND: CARCINOMA, KIDNEY: TUBULAR CELL ADENOMA OR ADENOCARCINOMA, PANCREAS: ACINAR CELL ADENOMA, Tumor Site: Type of Lesion: PREPUTIAL GLAND: CARCINOMA, KIDNEY: TUBULAR CELL ADENOMA OR ADENOCARCINOMA, PANCREAS: ACINAR CELL ADENOMA) “active; positive”.
Turning to `O=S(=O)(O)OCc1c2ccccc2cc2c1ccc1ccccc12`, for the setting “Species: RAT, Strain/Sex: SPRAGUE-DAWLEY/FEMALE, Route: SUBCUTANEOUS, 0.2 UMOL IN SESAME OIL:DMSO (9:1) 3/WK FOR 20 DOSES (STUDY DURATION: 52 WK), Tumor Site: Type of Lesion: INJECTION SITE: SARCOMA”, the carcinogen call is “active; positive”.
As for `[Ga]#[As]`, the carcinogen call (Species: MOUSE, Strain/Sex: B6C3F1/FEMALE, Route: INHALATION, 0.1, 0.5, 1 MG/M3 6 HR/D 5D/WK FOR 106 WK (STUDY DURATION: 106 WK), 0.1, 0.5, 1 MG/M3 6 HR/D 5D/WK FOR 106 WK (STUDY DURATION: 106 WK)) was “inactive; negative”; the carcinogen call (Species: MOUSE, Strain/Sex: B6C3F1/MALE, Route: INHALATION, 0.1, 0.5, 1 MG/M3 6 HR/D 5D/WK FOR 105 WK (STUDY DURATION: 105 WK), 0.1, 0.5, 1 MG/M3 6 HR/D 5D/WK FOR 105 WK (STUDY DURATION: 105 WK)) is “inactive; negative”; the carcinogen call (Species: MOUSE, Strain/Sex: ICR/MALE, Route: INTRAPERITONEAL, 48, 480 MG/KG AS GALLIUM SUSPENDED IN OLIVE OIL ONCE (STUDY DURATION: 18 MO), 48, 480 MG/KG AS GALLIUM SUSPENDED IN OLIVE OIL ONCE (STUDY DURATION: 18 MO)) was “inactive; negative”; the carcinogen call (Species: MOUSE, Strain/Sex: ICR/MALE, Route: SUBCUTANEOUS, 48, 480 MG/KG AS GALLIUM SUSPENDED IN OLIVE OIL ONCE (STUDY DURATION: 18 MO), 48, 480 MG/KG AS GALLIUM SUSPENDED IN OLIVE OIL ONCE (STUDY DURATION: 18 MO)) was “inactive; negative”; the carcinogen call (Species: RAT, Strain/Sex: F344/N/FEMALE, Route: INHALATION, 0.01, 0.1, 1 MG/M3 6 HR/D 5D/WK FOR 105 WK (STUDY DURATION: 105 WK), 0.01, 0.1, 1 MG/M3 6 HR/D 5D/WK FOR 105 WK (STUDY DURATION: 105 WK), Tumor Site: Type of Lesion: LUNG: ALVEOLAR/BRONCHIOLAR ADENOMA) is “active; positive”; the carcinogen call (Species: RAT, Strain/Sex: F344/N/MALE, Route: INHALATION, 0.01, 0.1, 1 MG/M3 6 HR/D 5D/WK FOR 105 WK (STUDY DURATION: 105 WK), 0.01, 0.1, 1 MG/M3 6 HR/D 5D/WK FOR 105 WK (STUDY DURATION: 105 WK)) was “inactive; negative”.
As to `C=CC(=C)C`, the carcinogen call (Species: MOUSE, Strain/Sex: B6C3F1/MALE, Route: INHALATION, 10, 70, 280, 700, 2200 PPM 8 HR/D 5 D/WK FOR 80 WK (STUDY DURATION: 104 WK), 10, 70, 280, 700, 2200 PPM 8 HR/D 5 D/WK FOR 80 WK (STUDY DURATION: 104 WK), Tumor Site: Type of Lesion: LUNG: ALVEOLAR/BRONCHIOLAR ADENOMA OR CARCINOMA, LIVER: HEPATOCELLULAR ADENOMA OR CARCINOMA, HARDERIAN GLAND: ADENOMA, Tumor Site: Type of Lesion: LUNG: ALVEOLAR/BRONCHIOLAR ADENOMA OR CARCINOMA, LIVER: HEPATOCELLULAR ADENOMA OR CARCINOMA, HARDERIAN GLAND: ADENOMA) was “active; positive”; the carcinogen call (Species: MOUSE, Strain/Sex: B6C3F1/MALE, Route: INHALATION, 70, 140, 2200 PPM 8 HR/D 5 D/WK FOR 40 WK (STUDY DURATION: 104 WK), 70, 140, 2200 PPM 8 HR/D 5 D/WK FOR 40 WK (STUDY DURATION: 104 WK), Tumor Site: Type of Lesion: LUNG: ALVEOLAR/BRONCHIOLAR ADENOMA OR CARCINOMA, LIVER: HEPATOCELLULAR ADENOMA OR CARCINOMA, HARDERIAN GLAND: ADENOMA, Tumor Site: Type of Lesion: LUNG: ALVEOLAR/BRONCHIOLAR ADENOMA OR CARCINOMA, LIVER: HEPATOCELLULAR ADENOMA OR CARCINOMA, HARDERIAN GLAND: ADENOMA) is “active; positive”; the carcinogen call (Species: MOUSE, Strain/Sex: B6C3F1/MALE, Route: INHALATION, 70, 220, 700, 2200, 7000 PPM 6 HR/D 5 D/WK FOR 26 WK FOLLOWED BY A 26-WK RECOVERY PERIOD (STUDY DURATION: 52 WK), 70, 220, 700, 2200, 7000 PPM 6 HR/D 5 D/WK FOR 26 WK FOLLOWED BY A 26-WK RECOVERY PERIOD (STUDY DURATION: 52 WK), Tumor Site: Type of Lesion: LIVER: ADENOMA OR CARCINOMA, LUNG: ALVEOLAR/BRONCHIOLAR ADENOMA OR CARCINOMA, FORESTOMACH: PAPILLOMA OR CARCINOMA, HARDE, Tumor Site: Type of Lesion: LIVER: ADENOMA OR CARCINOMA, LUNG: ALVEOLAR/BRONCHIOLAR ADENOMA OR CARCINOMA, FORESTOMACH: PAPILLOMA OR CARCINOMA, HARDE) was “active; positive”; the carcinogen call (Species: MOUSE, Strain/Sex: B6C3F1/MALE, Route: INHALATION, 280 PPM 8 HR/D 5 D/WK FOR 20 WK (STUDY DURATION: 104 WK), Tumor Site: Type of Lesion: HARDERIAN GLAND: ADENOMA, LIVER: ADENOMA) is “active; positive”; the carcinogen call (Species: MOUSE, Strain/Sex: B6C3F1/MALE, Route: INHALATION, 2200 PPM 4 HR/D 5 D/WK FOR 20 WK (STUDY DURATION: 104 WK), Tumor Site: Type of Lesion: HARDERIAN GLAND: ADENOMA, LIVER: HEPATOCELLULAR ADENOMA OR CARCINOMA) was “active; positive”; the carcinogen call (Species: MOUSE, Strain/Sex: B6C3F1/MALE, Route: INHALATION, 2200 PPM 4 HR/D 5 D/WK FOR 80 WK (STUDY DURATION: 104 WK), Tumor Site: Type of Lesion: LIVER: HEPATOCELLULAR ADENOMA OR CARCINOMA, HARDERIAN GLAND: ADENOMA) is “active; positive”. Besides, the carcinogen call was “active; positive” (Species: RAT, Strain/Sex: F344/N/FEMALE, Route: INHALATION, 220, 700, 7000 PPM 6 HR/D 5 D/WK FOR 105 WK (STUDY DURATION: 105 WK), 220, 700, 7000 PPM 6 HR/D 5 D/WK FOR 105 WK (STUDY DURATION: 105 WK), Tumor Site: Type of Lesion: MAMMARY GLAND: FIBROADENOMA) and “active; positive” (Species: RAT, Strain/Sex: F344/N/MALE, Route: INHALATION, 220, 700, 7000 PPM 6 HR/D 5 D/WK FOR 105 WK (STUDY DURATION: 105 WK), 220, 700, 7000 PPM 6 HR/D 5 D/WK FOR 105 WK (STUDY DURATION: 105 WK), Tumor Site: Type of Lesion: KIDNEY: ADENOMA OR CARCINOMA, MAMMARY GLAND: FIBROADENOMA OR CARCINOMA, TESTES: ADENOMA, Tumor Site: Type of Lesion: KIDNEY: ADENOMA OR CARCINOMA, MAMMARY GLAND: FIBROADENOMA OR CARCINOMA, TESTES: ADENOMA).
